The values that follow come from paper PMC10988555, “Exploiting Co(III)-Cyclopentadienyl Complexes To Develop Anticancer Agents” (Inorganic Chemistry, 2024).

For series [1], the system named is DNA of A2780 cells. In words: Single-cell gel electrophoresis (comet assay). Type of series: cell-based, human. The conditions noted are these: for fold increase in DNA in the tail compared to DMSO control: A2780, 10× IC50, 12 h; for % of DNA in the tail: A2780, complexes 10× IC50 for 12 h, H2O2 0.05% for 30 min at RT. How it is done:
A2780 cells were seeded in 6-well plates with a density of 1 × 10^6 cells/well and incubated for 24 h in an incubator with a humidified atmosphere at 5% (v/v) CO2 and 37 °C. […] The complexes and DMSO were incubated at 37 °C for 12 h and H2O2 for 30 min at RT. Cells were harvested with a cell scraper and solutions with 1 × 10^5 cells/mL in PBS were prepared. It was withdrawn 10 μL from the solutions and added to 90 μL of 1.5% (w/v) low melting point agarose in 1× PBS and dropped on the slides prepared previously with a coating of 1.5% (w/v) agarose (normal melting point agarose) in 1× TAE buffer. After drying at 4 °C for 15 min, the slides were dipped into lysis solution (450 mM NaCl, 3.72% EDTA, 5 mM Tris; to which 10% (v/v) DMSO and 1% (v/v) Triton-X were added just before use) for 1 h at 4 °C, followed by their being dipped for 40 min into cold electrophoresis solution (1 mM EDTA, 300 mM NaOH, pH 13). Electrophoresis was performed at 4 °C for 30 min at 25 V using a Sub-Cell model 96 apparatus (Bio-Rad). Afterward, slides were placed in 0.1 M Tris–HCl buffer (pH 7.5) at 4 °C for 15 min for neutralization, followed by 15 min in methanol at 4 °C and drying at 37 °C. For visualization of comets, slides were hydrated with distilled water at 4 °C for 30 min, stained with 20 μL of GelRed working solution (3×), and covered with new coverslips. The slides were observed under a Ti–U Eclipse inverted microscope (Nikon Instruments, Japan) and analyzed by CometScore version 2.1 (TriTek). About 100 cells per sample were analyzed. The percentage of DNA in the tail was used as a measure of the total DNA strand breakage.

The subject of series [2] is Calf Thymus DNA (CT-DNA). The series can be described thus: Calf thymus DNA binding assays (UV-vis, melting profile). The conditions noted are these: UV spectroscopy, 25 μM complex. How it is done: Calf Thymus DNA (CT-DNA) binding assay was performed through the UV–vis spectra from 230 to 700 nm on the spectrophotometer Evolution 300 UV–vis (Thermo Fischer Scientific, Waltham, MA, USA). It was used a filtered buffer (5 mM Tris–HCl, 50 mM NaCl, pH 7.02) for the dilution of 0–50 μM of CT-DNA and 25 μM of the complexes 2–4. Control solutions of CT-DNA, CT-DNA + DMSO, and DMSO were also prepared. All solutions were incubated for 24 h at 37 °C and then analyzed. CT-DNA concentration in […] had been determined at 260 nm in a NanoDrop2000 spectrophotometer (Thermo Scientific), using an extinction coefficient of 6600 M^–1 cm^–1. The dilution effect because of the addition of the DNA solution was corrected and the affinity constants were calculated according to eq 2: [drawing 2] 2 where [DNA] is the concentration of CT-DNA (per nucleotide phosphate), εa = Abs/[complex], εf is the extinction coefficient for the free complex, and εb is the extinction coefficient for [Co(η^5-C5H5)(PPh3)(NN)][(CF3SO3)2] when fully bound to DNA. DNA concentration (expressed as the molarity of phosphate groups) was determined with a NanoDrop 2000 spectrophotometer assuming ε260 = 6600 M^–1 cm^–1. A melting profile of 10 μM CT-DNA and 10 μM CT-DNA with 10 μM of the complexes 2–4, was also performed. Evagreen dye was added to all samples after a 1h 30 min incubation of CT-DNA with the complexes at 37 °C. Melting curves were analyzed in a Corbet RotorGene 6000 (Biorad, Spain) by a first incubation step at 37 °C for 5 min followed by a ramp from 37 to 95 °C with 90 s hold in the first step and 5 s hold in the next steps with green acquisition.

The subject of series [3] is plasmidic DNA (pUC18). In words: Interaction with pDNA and cleavage mechanism (agarose gel electrophoresis). The format is biochemical. Particulars: 25 μM complex with NaN3, catalase or D2O, 24 h. How it is done: E. coli transformed with pUC18 was inoculated onto a plate of LB-agar medium (Luria–Bertani) (Applichem, Darmstadt, Germany) supplemented with ampicillin (100 μg/mL) (Bioline, London, UK) and incubated for 24 h at 37 °C. Then, the E. coli cells were inoculated in liquid LB medium, supplemented with ampicillin (100 μg/mL) for 24 h at 37 °C. After incubation, the plasmid DNA (pDNA) was extracted by using the Kit NZYSpeedy Miniprep, following the instructions provided by the manufacturer.
The extracted pDNA (100 ng) was incubated with 5, 25, 50, and 100 μM concentrations of complexes 2–4, with DMSO 0.1% or only pUC18. The solutions were prepared in 5 mM Tris–HCl, 50 mM NaCl, pH 7.02, buffer, and incubated for 24 h at 37 °C. A control of pDNA cleaved with Hind III endonuclease was also used. Electrophoresis was performed in 0.8% (w/v) agarose gel (NZYtech) in TAE buffer at 70 V constant voltage for 1 h. Electrophoresis gel image was acquired in the Gel Doc EZ Imager (Bio-Rad).
The pDNA (100 ng) was incubated with 25 μM of complexes 2–4, in the absence or presence of 50 μM of NaN3, 4 units of catalase from the bovine liver (2000–5000 U/mg, Sigma-Aldrich, Spain), and 25 mM of D2O. The solutions were prepared in 5 mM Tris–HCl, 50 mM NaCl, pH 7.02, buffer, and incubated for 24 h at 37 °C. A control of pDNA cleaved with Hind III endonuclease was also used. […]

For series [4], the system named is A2780 cells. In words: Cell fractioning and ICP-AES (cytosolic, mitochondrial, nuclear fractions). The conditions noted are these: A2780, 12 h, 10× IC50, 37 °C. Type of series: cell-based, human. As for the experimental part: Internalization of the complexes in different cellular factions (cytosolic, mitochondrial, or nuclear) of A2780 cells was evaluated by using a cell fractionation kit (Abcam). Cells were seeded in a 24-well plate at a density of 2 × 10^5 cells/mL and incubated for 24 h at 37 °C with 5% (v/v) CO2. […] Cells were then incubated for 12 h at the same conditions as before. The culture media was recovered to a new tube (supernatant fraction) and cells were detached from the T-flask with 250 μL of TE (Gibco by life technologies). Then, we followed the instructions provided by the manufacturer of the cell fractionation kit (Abcam). At the end of the procedure, fresh aqua regia was added to the supernatant tube and to the cellular fractions and incubated overnight at room temperature (RT) in the hood fume. Samples were delivered to Laboratório de Análises/LAQV and the levels of cobalt were evaluated by ICP-AES.

Take `Cc1ccnc(-c2cc(C)ccn2)c1.O=S(=O)([O-])C(F)(F)F.O=S(=O)([O-])C(F)(F)F.[Co+3].c1cc[cH-]c1.c1ccc(P(c2ccccc2)c2ccccc2)cc1` [Complex 2, [Co(η^5-C5H5)(PPh3)(Me2bipy)][(CF3SO3)2]]: in series [1], the “fold increase in DNA in the tail compared to DMSO control” value (“fold increase in DNA in the tail” for short) came to 3.1 fold and the “% of DNA in the tail” value is recorded as 39.7%. The “effect on lowest-energy absorption band with increasing CT-DNA” value (shortened to “effect … with increasing CT-DNA”) in series [2] is on record as “a small hyperchromic effect”. Besides, the pDNA cleavage mechanism entry in series [3] is “cleave pDNA through singlet oxygen”. In series [4], the “Percentage of internalization in cytosol” value was 36.9% ± 10.4, the “Percentage of internalization in mitochondria” value (shortened to “Percentage … in mitochondria”) is given as 17.6% ± 6.5 and the “Percentage of internalization in nucleus” value is 38.1% ± 7.4.

`O=S(=O)([O-])C(F)(F)F.O=S(=O)([O-])C(F)(F)F.[Co+3].c1cc[cH-]c1.c1ccc(P(c2ccccc2)c2ccccc2)cc1.c1cnc2c(c1)ccc1cccnc12` [Complex 3, [Co(η^5-C5H5)(PPh3)(phen)][(CF3SO3)2]]: in series [1], the “fold increase in DNA in the tail” value turned out to be 3.2 fold and the “% of DNA in the tail” value is recorded as 42.4%. In addition, the “effect … with increasing CT-DNA” value in series [2] is “a hypochromic effect”. Moreover, the pDNA cleavage mechanism entry in series [3] was “cleave pDNA through singlet oxygen”. Moreover, in series [4], the “Percentage of internalization in cytosol” value is 30.6% ± 2.7, the “Percentage … in mitochondria” value is listed as 26.0% ± 11.4 and the “Percentage of internalization in nucleus” value is 20.3% ± 5.8.

Take `Nc1cc2cccnc2c2ncccc12.O=S(=O)([O-])C(F)(F)F.O=S(=O)([O-])C(F)(F)F.[Co+3].c1cc[cH-]c1.c1ccc(P(c2ccccc2)c2ccccc2)cc1` [Complex 4, [CoCp(PPh3)(NH2phen)][(CF3SO3)2]]: in series [1], the “fold increase in DNA in the tail” value amounted to 4.4 fold and the “% of DNA in the tail” value was found to be 56.4%. In addition, in series [2], the “effect … with increasing CT-DNA” value is “a hypochromic effect”. Also, in series [4], the “Percentage of internalization in cytosol” value is listed as 66.4% ± 14.7, the “Percentage … in mitochondria” value was 4.5% ± 2.1 and the “Percentage of internalization in nucleus” value was 18.4% ± 4.9.
